Source: US9233979B2, “Compounds that are ERK inhibitors” (Merck Sharp & Dohme Corp., priority 2012, dated 2016)

Target: phosphorylated active hERK2 enzyme (Homo sapiens (Human), UniProt P28482)
Experiment: Active Human ERK2 (hERK2) Activity Assay (IMAP-FP)
Assay type: biochemical
Conditions: Table 6, 0.5 nM hERK2, 30 μM ATP, 10 point titration, read-out: AERK2 IC50
Protocol: Assays Active Human ERK2 (hERK2) Activity Assay:
Activated ERK2 activity was determined in an IMAP-FP assay (Molecular Devices). […] The final reaction in each well of 25 μL consists of 0.5 nM hERK2, 900 nM unlabeled peptide, 80 nM labeled-peptide, and 30 μM ATP. Phosphorylation reactions were allowed to proceed for 60 minutes and were immediately quenched by the addition of 60 μL IMAP detection beads (1:1000 dilutions) in IMAP binding buffer (Molecular Devices) with 24 mM NaCl. Plates were read on EnVision reader after 60 minutes binding equilibration using Fluorescence Polarization protocol (Perkin Elmer).

Sequence of phosphorylated active hERK2 enzyme (P28482 whole entry): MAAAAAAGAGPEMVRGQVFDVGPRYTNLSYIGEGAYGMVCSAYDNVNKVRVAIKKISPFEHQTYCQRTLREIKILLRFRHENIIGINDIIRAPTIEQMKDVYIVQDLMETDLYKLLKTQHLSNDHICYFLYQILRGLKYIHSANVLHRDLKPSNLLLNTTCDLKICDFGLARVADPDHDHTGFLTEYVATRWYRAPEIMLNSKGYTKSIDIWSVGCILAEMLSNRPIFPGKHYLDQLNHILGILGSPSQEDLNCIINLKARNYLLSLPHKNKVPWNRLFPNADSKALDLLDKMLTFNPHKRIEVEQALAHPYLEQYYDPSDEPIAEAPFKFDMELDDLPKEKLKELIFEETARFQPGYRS

Row | SMILES | IC50 [nM]
1 | Nc1n[nH]c2cc(NC(=O)N[C@H](COC(F)F)c3ccccc3)ncc12 [Example 352, 1-(3-amino-1H-pyrazolo[4,3-c]-pyridin-6-yl)-3-[(1S)-2-(difluoromethoxy)-1-phenylethyl]urea] | 1.2
2 | C[C@@H](NC(=O)Nc1cc2[nH]nc(NC(=O)C3CC3)c2cn1)c1ccccc1 [Example 317, (R)—N-(6-(3-(1-phenylethyl)ureido)-1H-pyrazolo[4,3-c]pyridin-3-yl)cyclopropanecarboxamide] | 1
3 | C[C@@H](NC(=O)Nc1cc2[nH]nc(NC(=O)OCCO)c2cn1)c1ccc(F)cc1 [Example 404, 2-hydroxyethyl [6-({[(1R)-1-(4-fluorophenyl)ethyl]carbamoyl}amino)-1H-pyrazolo[4,3-c]pyridin-3-yl]-carbamate] | 5.3
4 | COC[C@@H](NC(=O)Nc1cc2[nH]nc(N3CCC(OC)CC3)c2cn1)c1ccccc1 [Example 415, 1-[(1S)-2-methoxy-1-phenylethyl]-3-[3-(4-methoxypiperidin-1-yl)-1H-pyrazolo[4,3-c]pyridin-6-yl]urea] | 1
5 | O=C(Nc1cc2[nH]nc(Nc3ccccc3Cl)c2cn1)N[C@@H]1CCCOc2ccccc21 [Example 119, 1-{3-[(2-chlorophenyl)-amino]-1H-pyrazolo[4,3-c]pyridin-6-yl}-3-[(5R)-2,3,4,5-tetrahydro-1-benzoxepin-5-yl]urea] | 60.1
6 | CCNc1n[nH]c2cc(NC(=O)NCc3ncccc3Cl)ncc12 [Example 278, 1-[(3-chloro-pyridin-2-yl)-methyl]-3-[3-(ethylamino)-1H-pyrazolo[4,3-c]-pyridin-6-yl]urea] | 21.8
7 | C[C@@H](NC(=O)Nc1cc2[nH]nc(NC(=O)C3CCOCC3)c2cn1)c1ccccc1 [Example 181, N-[6-({[(1R)-1-phenylethyl]-carbamoyl}amino)-1H-pyrazolo[4,3-c]pyridin-3-yl]-tetrahydro-2H-pyran-4-carboxamide] | 4.3
8 | COC[C@@H](NC(=O)Nc1cc2[nH]nc(N[C@@H]3CCOC3)c2cn1)c1ccccc1 [Example 75, 1-[(1S)-2-methoxy-1-phenylethyl]-3-{3-[(3R)-tetrahydro-furan-3-ylamino]-1H-pyrazolo[4,3-c]-pyridin-6-yl}urea] | 0.8
9 | C[C@@H](NC(=O)Nc1cc2[nH]nc(NC(=O)N[C@H](C)c3ccc(Cl)nc3)c2cn1)c1ccc(Cl)nc1 [Example 312, N′,N″′-1H-pyrazolo[4,3-c]pyridine-3,6-diylbis{1-[(1R)-1-(6-chloropyridin-3-yl)ethyl]urea}] | 134
10 | Cc1ccc(Nc2n[nH]c3cc(NC(=O)N[C@H](C)c4ccccc4)ncc23)cn1 [Example 61, 1-{3-[(6-methylpyridin-3-yl)amino]-1H-pyrazolo[4,3-c]pyridin-6-yl}-3-[(1R)-1-phenylethyl]urea] | 8.8
11 | COc1cc([C@@H](C)NC(=O)Nc2cc3[nH]nc(NC(=O)N[C@H](C)c4ccc(Cl)c(OC)c4)c3cn2)ccc1Cl [Example 314, 1,1′-(1H-pyrazolo[4,3-c]pyridine-3,6-diyl)bis(3-((R)-1-(4-chloro-3-methoxyphenyl)ethyl)urea)] | 732
12 | CC(C)(O)[C@@H](NC(=O)Nc1cc2[nH]nc(N3CCc4ncsc4C3)c2cn1)c1ccccc1 [Example 124, 1-[3-(6,7-dihydro[1,3]thiazolo-[5,4-c]pyridin-5(4H)-yl)-1H-pyrazolo[4,3-c]pyridin-6-yl]-3-[(1S)-2-hydroxy-2-methyl-1-phenylpropyl]urea] | 0.3
13 | COC(=O)Nc1n[nH]c2cc(NC(=O)N[C@H](C)c3ccc(Cl)c(C(F)(F)F)c3)ncc12 [Example 309, methyl {6-[({(1R)-1-[4-chloro-3-(trifluoromethyl)-phenyl]ethyl}-carbamoyl)amino]-1H-pyrazolo[4,3-c]pyridin-3-yl}-carbamate] | 3.6
14 | C[C@@H](O)[C@@H](NC(=O)Nc1cc2[nH]nc(N3CCc4ncsc4C3)c2cn1)c1ccccc1 [Example 387, 1-[3-(6,7-dihydro[1,3]-thiazolo[5,4-c]-pyridin-5(4H)-yl)-1H-pyrazolo[4,3-c]pyridin-6-yl]-3-[(1S,2R)-2-hydroxy-1-phenylpropyl]urea] | 0.5
15 | C[C@@H](NC(=O)Nc1cc2[nH]nc(NC3CCNC3)c2cn1)c1ccccc1 (stereo partly drawn) [Example 184, 1-[(1R)-1-phenylethyl]-3-[3-(pyrrolidin-3-ylamino)-1H-pyrazolo[4,3-c]pyridin-6-yl]urea] | 102
16 | C[C@@H](NC(=O)Nc1cc2[nH]nc(NC3CCCC3)c2cn1)c1ccccc1 [Example 186, 1-[3-(cyclopentyl-amino)-1H-pyrazolo[4,3-c]-pyridin-6-yl]-3-[(1R)-1-phenylethyl]urea] | 2.3
17 | COC[C@@H](NC(=O)Nc1cc2[nH]nc(NC(C)C(F)(F)F)c2cn1)c1ccccc1 (stereo partly drawn) [Example 422, 1-[(1S)-2-methoxy-1-phenylethyl]-3-{3-[(2,2,2-trifluoro-1-methylethyl)-amino]-1H-pyrazolo[4,3-c]-pyridin-6-yl}urea] | 0.8

Row | SMILES | IC50 [nM]
18 | CCNc1n[nH]c2cc(NC(=O)N[C@H](C)c3ccc(F)c(Cl)c3)ncc12 [Example 245, 1-[(1R)-1-(3-chloro-4-fluorophenyl)ethyl]-3-[3-(ethylamino)-1H-pyrazolo[4,3-c]pyridin-6-yl]urea] | 6.7
19 | COC[C@@H](NC(=O)Nc1cc2[nH]nc(N3CCc4ncsc4C3)c2cn1)c1ccccc1 [Example 127, 1-[3-(6,7-dihydro[1,3]-thiazolo[5,4-c]-pyridin-5(4H)-yl)-1H-pyrazolo[4,3-c]pyridin-6-yl]-3-[(1S)-2-methoxy-1-phenylethyl]urea] | 0.3
20 | CC12CCC(O1)C1CN(c3n[nH]c4cc(NC(=O)N[C@@H](c5ccc(F)cc5)C(C)(C)O)ncc34)CC12 (stereo partly drawn) [Example 377, 1-[(1S)-1-(4-fluorophenyl)-2-hydroxy-2-methyl-propyl]-3-[3-(4-methyloctahydro-2H-4,7-epoxyisoindo1-2-yl)-1H-pyrazolo[4,3-c]-pyridin-6-yl]urea] | 2.3
21 | COC(=O)Nc1n[nH]c2cc(NC(=O)N[C@@H]3CCOc4ccccc43)ncc12 [Example 295, methyl (6-{[(4R)-3,4-dihydro-2H-chromen-4-ylcarbamoyl]-amino}-1H-pyrazolo[4,3-c]-pyridin-3-yl)-carbamate] | 55
22 | O=C(Nc1cc2[nH]nc(N3CCOCC3)c2cn1)N[C@H](COC(F)F)c1ccccc1 [Example 440, 1-[(1S)-2-(difluoromethoxy)-1-phenylethyl]-3-(3-morpholin-4-yl-1H-pyrazolo[4,3-c]pyridin-6-yl)urea] | 0.4
23 | C[C@@H](NC(=O)Nc1cc2[nH]nc(N)c2cn1)c1ccc(F)c(Cl)c1 [Example 271, 1-(3-amino-1H-pyrazolo[4,3-c]pyridin-6-yl)-3-[(1R)-1-(3-chloro-4-fluorophenyl)-ethyl]urea] | 17.3
24 | CCNc1n[nH]c2cc(NC(=O)N[C@H](C)c3ccccc3)nc(CO)c12 [Example 70, 1-[3-(ethylamino)-4-(hydroxymethyl)-1H-pyrazolo[4,3-c]-pyridin-6-yl]-3-[(1R)-1-phenylethyl]urea] | 0.6
25 | CC(Nc1n[nH]c2cc(NC(=O)N[C@H](C)c3ccccc3)ncc12)C(F)(F)F (stereo partly drawn) [Example 419, 1-[(1R)-1-phenylethyl]-3-{3-[(2,2,2-trifluoro-1-methylethyl)amino]-1H-pyrazolo[4,3-c]pyridin-6-yl}urea] | 2.2
26 | CC(C)(O)[C@@H](NC(=O)Nc1cc2[nH]nc(NC(=O)OC3CCOC3)c2cn1)c1ccc(F)cc1 (stereo partly drawn) [Example 402, tetrahydrofuran-3-yl [6-({[(1S)-1-(4-fluorophenyl)-2-hydroxy-2-methyl-propyl]carbamoyl}amino)-1H-pyrazolo[4,3-c]-pyridin-3-yl]-carbamate] | 2.9
27 | CC(CN1CCOCC1)Nc1n[nH]c2cc(NC(=O)N[C@H](C)c3ccccc3)ncc12 (stereo partly drawn) [Example 175, 1-{3-[(1-methyl-2-morpholin-4-ylethyl)amino]-1H-pyrazolo[4,3-c]pyridin-6-yl}-3-[(1R)-1-phenylethyl]urea] | 33.8
28 | CCNc1n[nH]c2cc(NC(=O)NCc3cnsn3)ncc12 [Example 231, 1-[3-(ethylamino)-1H-pyrazolo[4,3-c]pyridin-6-yl]-3-(1,2,5-thiadiazol-3-ylmethyl)urea] | 57
29 | CC(C)Nc1n[nH]c2cc(NC(=O)N[C@H](C)c3ccccc3)ncc12 [Example 325, 1-{3-[(1-methyl-ethyl)amino]-1H-pyrazolo[4,3-c]-pyridin-6-yl}-3-[(1R)-1-phenylethyl]urea] | 1.5
30 | COC[C@@H](NC(=O)Nc1cc2[nH]nc(NC3CC3)c2cn1)c1ccccc1 [Example 329, 1-[3-(cyclopropyl-amino)-1H-pyrazolo[4,3-c]-pyridin-6-yl]-3-[(1S)-2-methoxy-1-phenylethyl]urea] | 1
31 | COC(=O)Nc1n[nH]c2cc(NC(=O)N[C@H](C)c3ccc(Cl)c(F)c3)ncc12 [Example 306, methyl [6-({[(1R)-1-(4-chloro-3-fluorophenyl)ethyl]carbamoyl}amino)-1H-pyrazolo[4,3-c]pyridin-3-yl]-carbamate] | 1.5
32 | CCNc1n[nH]c2cc(NC(=O)NC(C(=O)N(C)C)c3ccc(F)cc3)ncc12 (stereo not drawn) [Example 414, 2-({[3-(ethylamino)-1H-pyrazolo[4,3-c]-pyridin-6-yl]-carbamoyl}amino)-2-(4-fluorophenyl)-N,N-dimethyl-acetamide] | 413
33 | COC(C)(C)C(NC(=O)Nc1cc2[nH]nc(N3C[C@@H](C)O[C@@H](C)C3)c2cn1)c1ccc(F)cc1 (stereo partly drawn) [Example 432, 1-{3-[(2R,6S)-2,6-dimethylmorpholin-4-yl]-1H-pyrazolo[4,3-c]-pyridin-6-yl}-3-[1-(4-fluorophenyl)-2-methoxy-2-methylpropyl]urea] | 2.4
